Data on 35 molecules can be found in ChEMBL document CHEMBL5154763, “Discovery of 3H-pyrrolo[2,3-c]quinolines with activity against Mycobacterium tuberculosis by allosteric inhibition of the glutamate-5-kinase enzyme” (Eur J Med Chem, 2022).

The target of one data set is Acetylcholinesterase (Electrophorus electricus, UniProt O42275). Briefly: Inhibition of electric eel AChE using acetylthiocholine iodide as substrate by spectrophotometric analysis.
In data set [1] the test system is Mycobacterium tuberculosis. Briefly: Antitubercular activity against Mycobacterium tuberculosis H37Rv assessed as inhibition of bacterial growth measured after 8 days by Alamar blue assay. Format: functional. The note with it: 192 h, time 8 day.
Data set [2] deals with Mycobacterium tuberculosis. The data set is described as follows: Antitubercular activity against Mycobacterium tuberculosis H37Rv assessed as inhibition of bacterial growth. Format: functional.
The target of data set [3] is T1, Glutamate 5-kinase (Escherichia coli) (UniProt P0A7B5).
T1 sequence (whole entry): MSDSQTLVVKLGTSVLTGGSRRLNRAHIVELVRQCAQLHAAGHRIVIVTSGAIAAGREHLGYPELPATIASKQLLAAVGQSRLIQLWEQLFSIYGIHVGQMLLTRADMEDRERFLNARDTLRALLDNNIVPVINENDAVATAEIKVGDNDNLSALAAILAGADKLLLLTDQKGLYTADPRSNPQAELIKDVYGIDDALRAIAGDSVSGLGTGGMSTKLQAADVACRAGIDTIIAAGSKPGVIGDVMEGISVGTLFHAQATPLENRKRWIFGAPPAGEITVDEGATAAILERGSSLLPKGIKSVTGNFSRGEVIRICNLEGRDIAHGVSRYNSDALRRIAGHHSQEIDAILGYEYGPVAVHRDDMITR
The data set is described as follows: Allosteric inhibition of Escherichia coli G5K using 10 mM L-Glu and 10 mM ATP as substate by NADH-coupled assay. The note with it: filed as negative allosteric modulator.

Data set [4] concerns the target T1, Glutamate 5-kinase (Escherichia coli). The data set is described as follows: Allosteric inhibition of Escherichia coli G5K using 150 mM L-Glu and 10 mM ATP as substate by NADH-coupled assay relative to control. The note with it: filed as negative allosteric modulator.
A short description of data set [5]: Cytotoxicity against human HepG2 cells assessed as inhibition of cell growth at 20 uM measured after 48 hrs by MTT assay relative to control. It counts as toxicity, cell-based. (Tetrazolium assays rely on reduction of a dye to a coloured formazan, in cell work by metabolically active cells.)
Data set [6] concerns the target T1, Glutamate 5-kinase (Escherichia coli). The data set is described as follows: Allosteric inhibition of Escherichia coli G5K assessed as enzyme residual activity using 150 mM L-Glu and 2.2 to 8.4 mM ATP as substate by NADH-coupled assay relative to control.
Data set [7] in a line: Cytotoxicity against human HepG2 cells assessed as inhibition of cell growth at 10 uM measured after 48 hrs by MTT assay relative to control. It counts as toxicity, cell-based.
Data set [8] can be described thus: Cytotoxicity against human HepG2 cells assessed as inhibition of cell growth at 5 uM measured after 48 hrs by MTT assay relative to control. It counts as toxicity, cell-based.
The target of data set [9] is T1, Glutamate 5-kinase (Escherichia coli). Briefly: Allosteric inhibition of Escherichia coli G5K assessed as enzyme residual activity using 150 mM L-Glu and 10 mM ATP as substate by NADH-coupled assay relative to control.
For data set [10] the target is unchanged. The data set is described as follows: Allosteric inhibition of Escherichia coli G5K assessed as increase in apparent Km for ATP using L-Glu and ATP as substate at 120 uM by NADH-coupled assay. To be noted: filed as negative allosteric modulator.
For data set [11] the target is unchanged. The data set is described as follows: Allosteric inhibition of Escherichia coli G5K assessed as decrease in apparent Vmax for ATP using L-Glu and ATP as substate at 120 uM by NADH-coupled assay. The note with it: filed as negative allosteric modulator.
Data set [12] deals with Plasmodium falciparum. The data set is described as follows: Antiplasmodial activity against chloroquine-sensitive Plasmodium falciparum 3D7. It counts as functional, organism-based.
Data set [13] deals with Plasmodium falciparum. The data set is described as follows: Antiplasmodial activity against chloroquine-resistant Plasmodium falciparum Dd2. It counts as functional, organism-based.

In brackets after ≈: the same amount, converted by molar mass. Activity calls are given as the source filed them. The calls are words filed in the database; no cut-off is given here.

Chain of Acetylcholinesterase (O42275 whole entry): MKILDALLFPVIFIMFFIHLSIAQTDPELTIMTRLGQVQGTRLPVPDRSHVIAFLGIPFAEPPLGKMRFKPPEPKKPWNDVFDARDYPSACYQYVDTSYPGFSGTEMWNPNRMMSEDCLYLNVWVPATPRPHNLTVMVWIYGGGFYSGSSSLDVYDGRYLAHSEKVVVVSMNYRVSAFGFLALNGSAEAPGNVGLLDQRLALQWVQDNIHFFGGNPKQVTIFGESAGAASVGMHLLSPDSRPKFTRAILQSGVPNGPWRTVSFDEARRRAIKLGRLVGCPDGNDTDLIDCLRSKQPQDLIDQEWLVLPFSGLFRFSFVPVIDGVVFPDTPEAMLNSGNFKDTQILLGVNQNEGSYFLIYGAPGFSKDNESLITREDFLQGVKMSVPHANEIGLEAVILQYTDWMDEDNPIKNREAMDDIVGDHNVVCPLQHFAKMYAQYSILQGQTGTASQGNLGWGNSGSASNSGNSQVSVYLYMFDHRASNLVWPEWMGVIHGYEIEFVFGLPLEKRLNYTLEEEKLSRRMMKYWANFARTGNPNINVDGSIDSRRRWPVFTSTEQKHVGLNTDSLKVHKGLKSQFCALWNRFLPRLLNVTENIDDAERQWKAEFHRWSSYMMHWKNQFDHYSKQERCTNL

Take `CC(C)Cc1nc2ccccc2c2cc[nH]c12`: at Acetylcholinesterase, inhibition was half-maximal at 3.6 µM (IC50). In data set [1], the MIC (in general, the least concentration at which growth counts as inhibited) was 22.6 µM (≈ 5.07 µg/mL).

As to `c1ccc2c(c1)nc(-c1ccc(N3CCCC3)cc1)c1c3ncccc3[nH]c21`, the MIC in [2] stood at 13.7 µM (≈ 4.99 µg/mL).

Regarding `Cn1ccc2c3ccccc3nc(-c3ccc(Cl)cc3)c21`, the MIC in data set [1] amounted to 17.1 µM (≈ 5.01 µg/mL).

`Cc1ccc2c(c1)nc(-c1ccc(Cl)cc1)c1[nH]ccc12`: in [1], the minimal inhibitory concentration (MIC) is 8.5 µM (≈ 2.49 µg/mL).

As for `Fc1ccc2c(c1)nc(-c1ccc(Cl)cc1)c1c2ccn1CC1CC1`, the MIC in [1] worked out at 14.2 µM (≈ 4.98 µg/mL). Take `O=C(c1c[nH]c2ccccc12)c1nc2ccccc2c2cc[nH]c12` [MARINOQUINOLINE F]: the IC50 (in general, the concentration that gives 50% inhibition) against Acetylcholinesterase stood at 3.6 µM. Regarding `c1ccc(CCc2nc3ccccc3c3cc[nH]c23)cc1`, in data set [1], the MIC is 36.7 µM (≈ 10 µg/mL). Still for that read-out and setting: the value for `Cc1ccc2c(c1)nc(C1CC1)c1[nH]ccc12` was 45 µM (≈ 10 µg/mL). On to `Cc1ccc2c(c1)nc(-c1ccc(Cl)cc1)c1c2ccn1C`, for which, in data set [1], the MIC was determined as 16.3 µM (≈ 5 µg/mL). Regarding `Clc1ccc(-c2nc3ccccc3c3cc[nH]c23)cc1`, in data set [1], the minimal inhibitory concentration (MIC) was 17.9 µM (≈ 4.99 µg/mL).

Consider `COc1ccc2c(c1)nc(CCc1ccccc1)c1c2ccn1C`, for which the MIC in data set [1] is 7.9 µM (≈ 2.5 µg/mL).

Molecule `c1ccc(Cc2nc3ccccc3c3cc[nH]c23)cc1` [MARINOQUINOLINE C] returned an IC50 at Acetylcholinesterase of 3.6 µM. With `Clc1ccc(-c2nc3cc(Cl)ccc3c3cc[nH]c23)cc1`, the minimum inhibitory concentration (MIC) in data set [1] was found to be 16 µM (≈ 5.01 µg/mL). For the molecule `Clc1ccc(-c2nc3ccccc3c3c(Cl)c[nH]c23)cc1`, the MIC in data set [1] worked out at 16 µM (≈ 5.01 µg/mL).

With `Oc1ccc(Cc2nc3ccccc3c3cc[nH]c23)cc1` [MARINOQUINOLINE D], at Acetylcholinesterase, it took 3.6 µM to reach half-maximal inhibition (IC50). That is a single-digit micromolar value.

Turning to `CCCCCCCCc1nc2cc(OC)ccc2c2cc[nH]c12`, the minimal inhibitory concentration (MIC) in data set [1] is 16.1 µM (≈ 5 µg/mL). Molecule `Cc1nc2ccccc2c2cc[nH]c12` [MARINOQUINOLINE A] returned a 50% inhibitory concentration (IC50) on Acetylcholinesterase of 3.6 µM. As to `O=C(O)[C@@H]1CCCN1`, in data set [3], the I0.5 worked out at 2.5 µM. Besides, in [4], the inhibition (in general, the relative decrease from the control value, in per cent) is 100%. In the case of `COc1ccc2c(c1)nc(CCc1ccccc1)c1[nH]ccc12`, in [5], the inhibition at 48 h, 20 µM is 17%. For the same molecule, the Activity in data set [6] came out at 66%; in data set [9], 68%. Besides, the inhibition at 48 h, 10 µM in data set [7] was determined as 3%. The molecule also came in with an I0.5 in [3] of 22.1 µM. Also, in data set [1], the MIC stood at 4.1 µM (≈ 1.24 µg/mL). Further, the inhibition at 48 h, 5 µM in data set [8] was 1%. Besides, in data set [10], the inhibition result was “Active”. Turning to `CCCCCCCCc1nc2cc(C)ccc2c2cc[nH]c12`, in data set [1], the MIC was found to be 17 µM (≈ 5.01 µg/mL). With `Fc1ccc2c(c1)nc(-c1ccc(Cl)cc1)c1[nH]ccc12`, in data set [5], the inhibition at 48 h, 20 µM stood at 2%. Also, in [11], the inhibition entry is “Active”. The inhibition at 48 h, 10 µM in data set [7] was determined as 1%. Also, in data set [3], the I0.5 was 33 µM. The minimum inhibitory concentration (MIC) in data set [1] was 4.2 µM (≈ 1.25 µg/mL). Also, the inhibition at 48 h, 5 µM in data set [8] came out at 1%. In data set [4], this molecule yielded an inhibition of 40%. Consider `CCCCCCCCc1nc2cc(F)ccc2c2cc[nH]c12`, for which the MIC in data set [1] is 16.8 µM (≈ 5.01 µg/mL). Regarding `Clc1ccc(-c2nc3ccccc3c3c(Br)c[nH]c23)cc1`, in [1], the MIC amounted to 14 µM (≈ 5.01 µg/mL).

For `CC(C)(C)OC(=O)Nc1ccc(-c2nc3ccccc3c3[nH]c4ccccc4c23)cc1`, the minimal inhibitory concentration (MIC) in [2] worked out at 6.1 µM (≈ 2.5 µg/mL). Turning to `COc1c(N2C[C@@H]3CCCN[C@@H]3C2)c(F)cc2c(=O)c(C(=O)O)cn(C3CC3)c12` [MOXIFLOXACIN], in data set [1], the MIC is 0.15 µM (≈ 0.0602 µg/mL). With `COc1ccc2c(c1)nc(Cc1ccccc1)c1[nH]ccc12`, in data set [1], the MIC amounted to 34.7 µM (≈ 10 µg/mL). As to `Fc1ccc2c(c1)nc(CCc1ccccc1)c1[nH]ccc12`, in [1], the MIC came out at 34.4 µM (≈ 9.99 µg/mL).

As for `CCCCCCCCc1nc2ccccc2c2cc[nH]c12`, the minimal inhibitory concentration (MIC) in data set [1] was 17.8 µM (≈ 4.99 µg/mL). On to `Nc1ncnc2c1ncn2Cc1nc2ccccc2c2cc[nH]c12`, for which the 50% inhibitory concentration (IC50) amounted to 1.47 µM with Plasmodium falciparum [12] and 1.65 µM in the data set with Plasmodium falciparum [13].

For the molecule `Fc1cccc(-c2c[nH]c3c(-c4ccc(Cl)cc4)nc4ccccc4c23)c1`, in data set [1], the MIC stood at 26.8 µM (≈ 9.99 µg/mL).

Consider `c1ccc2c(c1)nc(C1CC1)c1[nH]ccc12`, for which the MIC in data set [1] came out at 24 µM (≈ 5 µg/mL). On the same count and under the same terms, in the case of `FC(F)(F)c1ccc2c(c1)nc(-c1ccc(Cl)cc1)c1[nH]ccc12` it was 14.4 µM (≈ 4.99 µg/mL); in that of `c1ccc(-c2ccc(-c3nc4ccccc4c4cc[nH]c34)cc2)cc1`, 31.2 µM (≈ 10 µg/mL). The molecule `c1ccc2c(c1)nc(-c1c[nH]c3ccccc13)c1[nH]ccc12` [MARINOQUINOLINE E] came in with an IC50 against Acetylcholinesterase of 3.6 µM. With `COC(=O)c1ccc2c(c1)nc(-c1ccc(Cl)cc1)c1[nH]ccc12`, in data set [1], the minimum inhibitory concentration (MIC) was > 500 µM.
